Measured values from PMC11369174, “Proteome-scale characterisation of motif-based interactome rewiring by disease mutations” (Molecular Systems Biology, 2024).
“Also recorded” adds a separate entry of the source.

What was measured:
[1] = target: T1, MAP1LC3B ATG8 (Homo sapiens, UniProt Q9GZQ8); test: FP displacement assay, MAP1LC3B ATG8; assay type: binding; details: for Kd: read-out: KD-values [µM] + SEM
Experimental: (§1) FP experiments were performed, as previously described (Kliche et al, [2021], [2023]), on an iD5 plate reader (Molecular devices) using black half-area non-binding 96-well plates (Corning). In order to calculate the FP signal in millipolarisation (mP), the FITC-labelled peptides were excited at 485 nm and the emitted light was measured at 535 nm in two different angles. For saturation experiments, a dilution series of the respective protein domains was generated (25 µL) and 10 nM fluorescein isothiocyanate (FITC)-labelled peptide (diluted in 50 mM sodium phosphate buffer pH 7.4, 0.05% Tween) were added in an end volume of 50 µL. A control experiment titrating GST was performed for the binding of the NEDD4 WW2 domain, since the GST-tagged construct was used for affinity measurements. For fitting the data, the buffer-corrected reduced values were plotted in GraphPad PRISM against the respective protein concentration and the KD-values were obtained by fitting against the quadratic equation (Gianni et al, [2005]).
(§2) The buffer-corrected reduced values were subsequently plotted against the logarithmic unlabelled peptide concentration to derive the IC50 values by using the sigmoidal dose-response (x is logarithmic) fit in GraphPad PRISM and calculate the KD values as described previously (Nikolovska-Coleska et al, [2004]).

[2] = target: T1, MAP1LC3B ATG8; test: GenVar_HD2 ProP-PD phage selection, MAP1LC3B ATG8; details: bait MAP1LC3B ATG8; from NGS counts of overlapping wild-type/mutant library peptide pairs; positive = mutation enhances, negative = disrupts binding
Experimental: Phage display screens were performed according to previous reports (Benz et al, [2022]; Ali et al, [2020]) and for four consecutive selection rounds with five to six replicates per bait protein domain against the […] library.
On the first day, both bait (15 µg in 100 µL PBS) and control protein domains (GST and MBP; 10 µg in 100 µL PBS) were immobilised on a 96-well MaxiSorb plate (Nunc) overnight in the cold room while shaking. Additionally, a 10 mL culture of Omnimax E. coli bacteria supplemented with 10 µg/mL tetracycline was incubated overnight at 37 °C at 200 rpm.
First, protein solutions were removed from both control and bait protein domain plates and the wells were blocked with 0.5% BSA in PBS (200 µL/well) for 1 h in the cold room while shaking. After that, three Omnimax E. coli cultures were started supplemented with either 30 µg/mL kanamycin, 100 µg/mL carbenicillin and 10 µg/mL tetracycline and incubated at 37 °C and 200 rpm. The two first cultures served as a means to check for helper phage contamination (kanamycin) and phages with library phagemid contamination (carbenicillin) of the culture used for elution of the phages during selections. The tetracycline Omnimax E. coli culture was grown until OD at 600 nm reached 0.6–0.8.
Naïve phage libraries were precipitated (10 µL/well of bait protein domain) by diluting the library tenfold with PBS, adding one-fourth of 20% […] and 400 mM NaCl and incubating the mixture for 15 min on ice. Subsequently, phages were spun down for 15 min at 13,000 × g and resuspended in 0.5% BSA and 0.05% Tween-20 in PBS (100 µL/well). Control domain plates were washed four times with 200 µL 0.05% Tween-20 in PBS, 100 µL of the naïve phage library (10^11 phages/mL) were added to every well and the plates incubated for 1 h in the cold room while shaking. Next, protein bait domain plates were washed four times with 0.05% Tween-20 in PBS and the phage solution from the control protein plate was transferred to the respective wells on the protein bait domain plate. […]

[3] = system: KPNA4 ARM; test: GenVar_HD2 ProP-PD phage selection, KPNA4 ARM; assay type: binding, human; details: for max_promiscuity / max_specificity: bait-prey protein level, bait_accession O00629; for Mutation enrichment score: bait KPNA4 ARM, from NGS counts of overlapping wild-type/mutant library peptide pairs, positive = mutation enhances, negative = disrupts binding
[4] = target: T1, MAP1LC3B ATG8; test: Isothermal titration calorimetry, MAP1LC3B ATG8; assay type: binding; set-up: S∆T / ∆H: unit not given here; details: ITC; for N (stoichiometry of the interaction): N value from the fit or set if necessary
[5] = target: KPNA4 ARM major (Homo sapiens, UniProt O00629); test: FP displacement assay, KPNA4 ARM major pocket; assay type: binding; details: from FP displacement KD values, KPNA4 ARM major pocket
Experimental: as §1, §2

[6] = target: KPNA7 ARM major (Homo sapiens, UniProt A9QM74); test: FP displacement assay, KPNA7 ARM major pocket; assay type: binding; details: for Kd: read-out: KD-values [µM] + SEM
Experimental: as §1, §2

[7] = target: NEDD4 WW2 (Homo sapiens, UniProt P46934); test: FP displacement assay, NEDD4 WW2; assay type: binding; details: read-out: KD-values [µM] + SEM
Experimental: For saturation experiments, a dilution series of the respective protein domains was generated (25 µL) and 10 nM fluorescein isothiocyanate (FITC)-labelled peptide (diluted in 50 mM sodium phosphate buffer pH 7.4, 0.05% Tween) were added in an end volume of 50 µL. A control experiment titrating GST was performed for the binding of the NEDD4 WW2 domain, since the GST-tagged construct was used for affinity measurements.
If the raw values indicated a FITC-contamination of the unlabelled peptide, the data was excluded and a new batch of peptide was ordered for remeasuring the affinity.

[8] = target: ABL1 SH3 (Homo sapiens, UniProt P00519); test: GenVar_HD2 ProP-PD phage selection, ABL1 SH3; assay type: binding; details: for confidence: confidence of the enriched peptide; for overlap: overlapping peptides; for replicates: replicates in which the peptide was found; for mutant_found: True/False if a mutated peptide was found in selection; for wildtype_found: True/False if a wild type peptide was found in selection; for mutation_effect_on_PPI: bait-mutation pair categorized as diminished, enhanced or no_effect; for max_mutant_confidence: maximum confidence for an enriched mutated peptide; for max_wildtype_confidence: maximum confidence for an enriched wild type peptide
[9] = KD (isothermal titration calorimetry), 50 mM sodium phosphate pH 7.4, 1 mM DTT, peptide titrated in tenfold excess, 16 injections
[10] = bait domain-prey protein level, bait ABL1_SH3__P00519_60_121
[11] = phage selection, bait ABL1_SH3__P00519_60_121

KPNA7 ARM major, sequence (A9QM74 66-488 limits assumed): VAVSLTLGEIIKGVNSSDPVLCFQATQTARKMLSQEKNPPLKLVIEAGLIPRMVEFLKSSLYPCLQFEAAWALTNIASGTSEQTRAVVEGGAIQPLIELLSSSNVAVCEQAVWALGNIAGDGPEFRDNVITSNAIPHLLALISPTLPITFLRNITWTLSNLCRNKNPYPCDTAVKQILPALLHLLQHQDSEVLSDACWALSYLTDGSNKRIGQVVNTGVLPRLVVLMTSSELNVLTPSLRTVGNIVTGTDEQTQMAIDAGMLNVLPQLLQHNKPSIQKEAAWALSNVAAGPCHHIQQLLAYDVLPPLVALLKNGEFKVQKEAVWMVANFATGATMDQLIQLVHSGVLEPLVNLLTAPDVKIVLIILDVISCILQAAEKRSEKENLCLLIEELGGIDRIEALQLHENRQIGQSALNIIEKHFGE
ABL1 SH3, sequence (P00519 60-121): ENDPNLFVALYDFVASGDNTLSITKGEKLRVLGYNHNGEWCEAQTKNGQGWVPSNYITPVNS
KPNA4 ARM major, sequence (O00629 68-487): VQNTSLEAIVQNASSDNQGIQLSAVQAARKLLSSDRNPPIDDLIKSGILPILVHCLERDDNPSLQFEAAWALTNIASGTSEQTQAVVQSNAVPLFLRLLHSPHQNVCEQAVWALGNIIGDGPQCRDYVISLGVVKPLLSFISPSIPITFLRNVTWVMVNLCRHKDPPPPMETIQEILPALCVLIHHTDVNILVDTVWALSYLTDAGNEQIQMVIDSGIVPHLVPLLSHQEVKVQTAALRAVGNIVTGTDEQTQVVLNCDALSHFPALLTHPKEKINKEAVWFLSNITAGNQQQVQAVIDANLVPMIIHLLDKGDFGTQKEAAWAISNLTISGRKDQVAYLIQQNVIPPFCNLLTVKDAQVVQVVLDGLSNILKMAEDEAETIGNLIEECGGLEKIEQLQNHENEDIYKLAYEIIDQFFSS
NEDD4 WW2, sequence (P46934 765-803 limits assumed): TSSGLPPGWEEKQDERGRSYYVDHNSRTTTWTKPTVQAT

CC(=O)NCC(=O)N[C@@H](CC(=O)O)C(=O)N[C@@H](CC(=O)O)C(=O)N[C@@H](CC(=O)O)C(=O)N[C@@H](Cc1c[nH]c2ccccc12)C(=O)N[C@H](C(=O)N[C@@H](Cc1c[nH]cn1)C(=O)N[C@@H](CC(C)C)C(=O)N[C@@H](CO)C(=O)N[C@@H](CO)C(=O)N[C@@H](CCCCN)C(=O)N[C@@H](CCC(=O)O)C(=O)N[C@H](C(=O)N[C@@H](CC(=O)O)C(=O)N[C@@H](CC(C)C)C(=O)N[C@@H](CO)C(N)=O)C(C)C)[C@@H](C)O [SQSTM1_334-349 P348L]
effect of the mutation on binding (in words) ([1]; FP affinity measurements, MAP1LC3B ATG8): the mutation has no impact on binding; also recorded: did not affect the binding | Kd [1]: 0.6 ± 0.1 µM | Mutation enrichment score [2]: 7.6

CC(=O)NCC(=O)N[C@@H](CC(=O)O)C(=O)N[C@@H](CC(=O)O)C(=O)N[C@@H](CC(=O)O)C(=O)N[C@@H](Cc1c[nH]c2ccccc12)C(=O)N[C@H](C(=O)N[C@@H](Cc1c[nH]cn1)C(=O)N[C@@H](CC(C)C)C(=O)N[C@@H](CO)C(=O)N[C@@H](CO)C(=O)N[C@@H](CCCCN)C(=O)N[C@@H](CCC(=O)O)C(=O)N[C@H](C(=O)N[C@@H](CC(=O)O)C(=O)N1CCC[C@H]1C(=O)N[C@@H](CO)C(N)=O)C(C)C)[C@@H](C)O [SQSTM1_334-349 wild-type]
Kd [1]: 0.5 ± 0.1 µM

A7E2Y1
max_promiscuity [3]: 10 | max_specificity [3]: 0.7829

Ac-EDEVYEILRDTSEEDS-NH2 [BRCA2_292-307 T298I/V299L/V300R]
Kd [1]: 0.52 ± 0.01 µM | Ka ([4]; replicate 1): 388000 | S∆T ([4]; replicate 1): 3.04 | ∆H ([4]; replicate 1): -6718 | N (stoichiometry of the interaction) ([4]; replicate 1): 0.744 | Ka ([4]; replicate 2): 524000 | S∆T ([4]; replicate 2): 3.49 | ∆H ([4]; replicate 2): -6766 | N (stoichiometry of the interaction) ([4]; replicate 2): 0.685 | Ka ([4]; replicate 3): 3280000 | S∆T ([4]; replicate 3): 8.75 | ∆H ([4]; replicate 3): -6280 | N (stoichiometry of the interaction) ([4]; replicate 3): 0.649 | Kd [4, 9]: 2 µM | Mutation enrichment score [2]: 15

Ac-EDEVYETVVDTSEEDS-NH2 [BRCA2_292-307 wild-type]
Kd [1]: 3.12 ± 0.08 µM | Ka ([4]; replicate 1): 9160 | S∆T ([4]; replicate 1): -1.5 | ∆H ([4]; replicate 1): -5832 | N (stoichiometry of the interaction) ([4]; replicate 1): 0.70 | Ka ([4]; replicate 2): 55000 | S∆T ([4]; replicate 2): 13.7 | ∆H ([4]; replicate 2): -2389 | N (stoichiometry of the interaction) ([4]; replicate 2): 0.684 | Kd ([4]; average of the Kd [µM] column, wild-type technical duplicate, mutant technical triplets, read-out: Average Kd): 64 µM | Kd [4, 9]: 20 to 100 µM

Ac-EPSEKCTRLEEEIVEY-NH2 [CDC45_152-166 R157C]
weakened binding, mutant vs wild-type peptide [5]: 70 fold | loss of binding, mutant vs wild-type peptide ([6]; from FP displacement KD values, KPNA7 ARM major pocket): 50 fold | Kd [6]: 380 ± 15 µM | Mutation enrichment score [3]: −7

Ac-EPSEKRTRLEEEIVEY-NH2 [CDC45_152-166 wild-type]
Kd [6]: 6.6 ± 0.7 µM

Ac-LDLDDRWQFKRSQLLD-NH2 [ABRAXAS1_349-364 R361Q]
weakened binding, mutant vs wild-type peptide [5]: 400 fold | Mutation enrichment score [3]: −6

Ac-PIPGTPPPNYDSLRLQ-NH2 [SCNN1B_611-626 wild-type]
Kd [7]: 39 ± 3 µM

Ac-YPRMPEAARPVAPAPAAP-NH2 [TP53_64-80 P72R]
Mutation enrichment score ([8]; bait ABL1 SH3, from NGS counts of overlapping wild-type/mutant library peptide pairs, positive = mutation enhances, negative = disrupts binding): −6

EGR2
max_promiscuity [8, 10]: 5 | max_specificity [8, 10]: 0.973

EPRFSPPHSPPGPAMP
promiscuity [8, 11]: 2 | specificity [8, 11]: 0.9643 | confidence [8, 11]: 3 | overlap [8, 11]: 1 | replicates [8, 11]: 5

EPRFSPPPSPPGPAMP
promiscuity [8, 11]: 5 | specificity [8, 11]: 0.995 | confidence [8, 11]: 4 | overlap [8, 11]: 1 | replicates [8, 11]: 6

HYLDLLALLLDSSEPRFSPPHSPPGPCMPEVFLEAAVALIQ [O15287.P386H]
mutant_found [8]: TRUE | wildtype_found [8]: TRUE | mutation_effect_on_PPI ([8]; bait ABL1_SH3__P00519_60_121): no_effect | max_mutant_confidence [8]: 3 | max_wildtype_confidence [8]: 4

HYLDLLALLLDSSEPRFSPPLSPPGPCMPEVFLEAAVALIQ [O15287.P386L]
mutant_found [8]: TRUE | wildtype_found [8]: TRUE | mutation_effect_on_PPI ([8]; bait ABL1_SH3__P00519_60_121): no_effect | max_mutant_confidence [8]: 2 | max_wildtype_confidence [8]: 4

KPPEEPGQCPAPEELPLFPPSGEPSLSPLLGEPALSEPGEP [O14686.P886S]
mutant_found [8]: TRUE | wildtype_found [8]: TRUE | mutation_effect_on_PPI ([8]; bait ABL1_SH3__P00519_60_121): no_effect | max_mutant_confidence [8]: 1 | max_wildtype_confidence [8]: 3

KPPEEPGQCPAPEELPLFPPTGEPSLSPLLGEPALSEPGEP [O14686.P886T]
mutant_found [8]: FALSE | wildtype_found [8]: TRUE | mutation_effect_on_PPI ([8]; bait ABL1_SH3__P00519_60_121): diminished | max_wildtype_confidence [8]: 3

LDSSEPRFSPPLSPPG
promiscuity [8, 11]: 1 | specificity [8, 11]: 1 | mean_counts_% ([8]; phage selection, bait ABL1_SH3__P00519_60_121, NGS counts): 0.0009534% | confidence [8, 11]: 2 | overlap [8, 11]: 1 | replicates [8, 11]: 1

LSPVRSPTPPAAGFQPLLNGRLVPVPPTTPAPGVQLDVEAL [B1AK53.S719R]
mutant_found [8]: FALSE | wildtype_found [8]: TRUE | mutation_effect_on_PPI ([8]; bait ABL1_SH3__P00519_60_121): no_effect | max_wildtype_confidence [8]: 2

NGSLVPVPPTTPAPGV
promiscuity [8, 11]: 2 | specificity [8, 11]: 0.8421 | confidence [8, 11]: 2 | overlap [8, 11]: 0 | replicates [8, 11]: 4

O14647
max_promiscuity [3]: 11 | max_specificity [3]: 0.5779

PLFPPPGEPSLSPLLG
promiscuity [8, 11]: 2 | specificity [8, 11]: 0.9995 | confidence [8, 11]: 3 | overlap [8, 11]: 0 | replicates [8, 11]: 6
